The values below come from patent US20260137703A1, “2-AMINO-PYRIDO[2,3-D]PYRIMIDIN-7(8H)-ONE AND 7-AMINO-1-PYRIMIDO[4,5-D]PYRIMIDIN-2(1 H)-ONE DERIVATIVES AS EGFR INHIBITORS FOR THE TREATMENT OF CANCER” (Cancer Research Technology Limited, priority 2022, published 2026).

Assay [1] has as its target CtermHisTag-mEGFR Wild type (Homo sapiens, UniProt P00533). Briefly: biochemical.
Assay [2] addresses T1, Phospho-EGFR (Tyr1068) in H1975 C797S cells (CRISPR-edited EGFR C797S) (Homo sapiens, UniProt P00533, C797S/L858R/T790M).
T1 construct: host or cells: H1975 C797S (CRISPR-edited)
Briefly: HTRF pEGFR/total EGFR in H1975 C797S cells. The class given is cell-based. As to conditions: ratio pEGFR/total EGFR, compound 3 hours. In outline: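 Adhered H1975 C797S cells got compound for 3 h in duplicate at 0.1% DMSO final, then were lysed 30 min at room temperature. HTRF kits quantified phospho-EGFR (Tyr1068) and total EGFR (665/620 nm); results are pEGFR/total EGFR ratio as percent of 0 μM control.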

Assay [3] has as its target T2, Phospho-EGFR (Tyr1068) in H1975 cells (Homo sapiens, UniProt P00533, L858R/T790M).
T2 construct: host or cells: H1975
Put plainly: HTRF pEGFR/total EGFR in H1975 cells. Type of assay: cell-based. The settings on record: ratio pEGFR/total EGFR, compound 3 hours. In outline: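 H1975 cells (EGFR L858R/T790M) treated 3 h with compound in 0.1% DMSO, in duplicate, 24 h after plating. Lysates assayed by HTRF for pEGFR (Tyr1068) and total EGFR at 665/620 nm; values are pEGFR/total EGFR ratio as percent of 0 μM control.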

Assay [4] deals with T3, Phospho-EGFR (Tyr1068) in A431 cells (Homo sapiens, UniProt P00533).
T3 construct: endogenous in cells; host or cells: A431
Briefly: HTRF pEGFR/total EGFR in A431 cells with EGF stimulation. The class given is cell-based. The settings on record: ratio pEGFR/total EGFR, compound 2.5 hours then 100 ng/ml EGF 30 mins. In outline:
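A431 cells were plated at 20,000 per well, allowed 24 h to adhere, then given compound for 2.5 h (0.1% DMSO final). They were then stimulated with 100 ng/ml EGF for 30 min and lysed. HTRF measured Tyr1068-phospho and total EGFR at 665/620 nm, with pEGFR/total EGFR expressed as % of the 0 μM control.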

Bounds are passed on as bounds.

T2 sequence (P00533 25-1210 T790M/L858R): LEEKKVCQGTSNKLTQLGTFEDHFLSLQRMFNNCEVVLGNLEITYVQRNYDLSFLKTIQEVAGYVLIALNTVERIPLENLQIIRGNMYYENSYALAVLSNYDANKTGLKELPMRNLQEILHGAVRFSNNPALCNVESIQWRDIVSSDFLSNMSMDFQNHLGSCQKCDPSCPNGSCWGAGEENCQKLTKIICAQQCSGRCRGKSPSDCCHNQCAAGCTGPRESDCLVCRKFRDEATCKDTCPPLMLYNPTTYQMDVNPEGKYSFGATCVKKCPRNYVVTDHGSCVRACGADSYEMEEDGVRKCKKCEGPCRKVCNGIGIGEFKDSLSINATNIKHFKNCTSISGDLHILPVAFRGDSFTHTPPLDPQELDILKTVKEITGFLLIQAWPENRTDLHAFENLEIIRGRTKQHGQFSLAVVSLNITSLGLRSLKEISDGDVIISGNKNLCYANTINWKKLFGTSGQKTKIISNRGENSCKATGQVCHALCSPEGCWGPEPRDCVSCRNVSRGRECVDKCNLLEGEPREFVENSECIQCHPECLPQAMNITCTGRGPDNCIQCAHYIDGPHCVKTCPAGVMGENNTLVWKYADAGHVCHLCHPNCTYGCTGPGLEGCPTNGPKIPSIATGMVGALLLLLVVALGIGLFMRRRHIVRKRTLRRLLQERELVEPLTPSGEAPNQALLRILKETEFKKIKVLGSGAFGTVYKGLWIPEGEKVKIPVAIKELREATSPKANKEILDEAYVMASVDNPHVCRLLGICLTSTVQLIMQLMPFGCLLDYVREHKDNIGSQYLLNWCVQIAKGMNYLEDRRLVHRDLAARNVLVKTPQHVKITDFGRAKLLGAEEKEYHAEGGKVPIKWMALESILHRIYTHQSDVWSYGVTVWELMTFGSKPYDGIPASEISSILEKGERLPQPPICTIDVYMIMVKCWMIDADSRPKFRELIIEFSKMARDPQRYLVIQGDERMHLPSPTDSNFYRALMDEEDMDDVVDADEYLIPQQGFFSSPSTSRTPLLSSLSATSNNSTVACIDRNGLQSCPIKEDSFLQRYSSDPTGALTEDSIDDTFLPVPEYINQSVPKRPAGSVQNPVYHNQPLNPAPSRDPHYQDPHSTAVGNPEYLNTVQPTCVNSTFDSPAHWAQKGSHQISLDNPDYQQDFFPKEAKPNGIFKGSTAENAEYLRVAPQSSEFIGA
Chain of CtermHisTag-mEGFR Wild type (P00533 whole entry): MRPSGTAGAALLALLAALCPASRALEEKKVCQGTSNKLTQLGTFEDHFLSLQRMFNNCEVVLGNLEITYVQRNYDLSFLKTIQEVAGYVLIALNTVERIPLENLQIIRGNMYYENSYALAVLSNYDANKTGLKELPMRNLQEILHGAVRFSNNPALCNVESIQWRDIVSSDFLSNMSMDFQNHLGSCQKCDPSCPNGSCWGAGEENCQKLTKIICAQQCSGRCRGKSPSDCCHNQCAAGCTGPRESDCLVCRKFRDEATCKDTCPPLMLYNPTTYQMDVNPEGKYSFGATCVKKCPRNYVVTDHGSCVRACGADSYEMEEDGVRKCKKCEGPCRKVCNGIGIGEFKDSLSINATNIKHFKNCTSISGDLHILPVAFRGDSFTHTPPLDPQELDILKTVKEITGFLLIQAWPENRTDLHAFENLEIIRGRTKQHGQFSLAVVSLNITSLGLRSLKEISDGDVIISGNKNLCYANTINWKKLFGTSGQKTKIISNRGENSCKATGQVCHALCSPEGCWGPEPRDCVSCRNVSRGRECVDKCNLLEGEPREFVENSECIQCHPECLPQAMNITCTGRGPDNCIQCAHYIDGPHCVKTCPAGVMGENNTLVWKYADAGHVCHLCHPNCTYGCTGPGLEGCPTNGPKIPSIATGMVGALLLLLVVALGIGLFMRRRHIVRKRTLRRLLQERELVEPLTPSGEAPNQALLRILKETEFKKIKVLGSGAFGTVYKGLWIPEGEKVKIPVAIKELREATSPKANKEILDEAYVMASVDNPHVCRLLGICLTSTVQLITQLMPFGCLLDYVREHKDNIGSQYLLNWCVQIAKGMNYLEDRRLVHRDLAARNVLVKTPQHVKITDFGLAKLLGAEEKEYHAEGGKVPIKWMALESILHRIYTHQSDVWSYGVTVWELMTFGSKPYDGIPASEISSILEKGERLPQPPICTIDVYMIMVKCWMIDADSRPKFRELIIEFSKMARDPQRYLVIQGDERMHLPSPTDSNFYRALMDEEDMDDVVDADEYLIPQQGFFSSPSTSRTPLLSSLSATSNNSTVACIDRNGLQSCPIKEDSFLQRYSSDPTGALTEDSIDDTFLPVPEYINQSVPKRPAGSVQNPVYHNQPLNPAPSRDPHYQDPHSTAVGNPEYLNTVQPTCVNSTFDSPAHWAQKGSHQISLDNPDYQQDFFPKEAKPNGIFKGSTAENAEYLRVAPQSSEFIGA
T1 sequence (P00533 25-1210 T790M/C797S/L858R): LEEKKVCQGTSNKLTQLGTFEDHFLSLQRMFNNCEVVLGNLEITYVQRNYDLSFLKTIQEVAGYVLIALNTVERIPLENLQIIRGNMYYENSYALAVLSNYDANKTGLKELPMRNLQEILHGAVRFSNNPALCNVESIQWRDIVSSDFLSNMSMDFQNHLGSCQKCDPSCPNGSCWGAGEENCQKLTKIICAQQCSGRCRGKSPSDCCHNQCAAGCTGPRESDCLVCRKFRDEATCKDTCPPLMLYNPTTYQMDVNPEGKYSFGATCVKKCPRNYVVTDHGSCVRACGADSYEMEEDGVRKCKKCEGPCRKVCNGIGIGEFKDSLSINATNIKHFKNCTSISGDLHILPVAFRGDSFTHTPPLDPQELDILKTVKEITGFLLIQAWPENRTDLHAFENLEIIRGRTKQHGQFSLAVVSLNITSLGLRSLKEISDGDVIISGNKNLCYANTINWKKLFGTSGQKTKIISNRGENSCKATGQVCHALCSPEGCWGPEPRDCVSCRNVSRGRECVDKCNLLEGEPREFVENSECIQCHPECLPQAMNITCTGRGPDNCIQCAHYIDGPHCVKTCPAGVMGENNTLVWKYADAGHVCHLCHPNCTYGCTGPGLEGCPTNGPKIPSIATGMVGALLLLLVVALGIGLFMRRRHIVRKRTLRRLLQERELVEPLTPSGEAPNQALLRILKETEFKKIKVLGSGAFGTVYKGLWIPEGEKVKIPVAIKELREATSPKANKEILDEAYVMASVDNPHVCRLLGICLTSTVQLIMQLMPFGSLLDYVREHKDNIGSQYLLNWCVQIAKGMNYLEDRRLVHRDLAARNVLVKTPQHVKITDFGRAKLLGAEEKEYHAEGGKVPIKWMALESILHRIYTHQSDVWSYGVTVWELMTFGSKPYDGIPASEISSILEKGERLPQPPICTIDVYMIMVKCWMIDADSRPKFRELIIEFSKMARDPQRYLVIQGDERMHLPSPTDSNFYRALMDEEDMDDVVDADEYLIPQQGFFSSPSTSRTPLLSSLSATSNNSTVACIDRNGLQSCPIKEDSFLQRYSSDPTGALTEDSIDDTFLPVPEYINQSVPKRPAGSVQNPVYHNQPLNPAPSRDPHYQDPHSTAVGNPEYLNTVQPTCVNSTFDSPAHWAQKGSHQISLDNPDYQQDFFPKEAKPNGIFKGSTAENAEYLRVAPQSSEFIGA
T3 sequence (P00533 25-1210): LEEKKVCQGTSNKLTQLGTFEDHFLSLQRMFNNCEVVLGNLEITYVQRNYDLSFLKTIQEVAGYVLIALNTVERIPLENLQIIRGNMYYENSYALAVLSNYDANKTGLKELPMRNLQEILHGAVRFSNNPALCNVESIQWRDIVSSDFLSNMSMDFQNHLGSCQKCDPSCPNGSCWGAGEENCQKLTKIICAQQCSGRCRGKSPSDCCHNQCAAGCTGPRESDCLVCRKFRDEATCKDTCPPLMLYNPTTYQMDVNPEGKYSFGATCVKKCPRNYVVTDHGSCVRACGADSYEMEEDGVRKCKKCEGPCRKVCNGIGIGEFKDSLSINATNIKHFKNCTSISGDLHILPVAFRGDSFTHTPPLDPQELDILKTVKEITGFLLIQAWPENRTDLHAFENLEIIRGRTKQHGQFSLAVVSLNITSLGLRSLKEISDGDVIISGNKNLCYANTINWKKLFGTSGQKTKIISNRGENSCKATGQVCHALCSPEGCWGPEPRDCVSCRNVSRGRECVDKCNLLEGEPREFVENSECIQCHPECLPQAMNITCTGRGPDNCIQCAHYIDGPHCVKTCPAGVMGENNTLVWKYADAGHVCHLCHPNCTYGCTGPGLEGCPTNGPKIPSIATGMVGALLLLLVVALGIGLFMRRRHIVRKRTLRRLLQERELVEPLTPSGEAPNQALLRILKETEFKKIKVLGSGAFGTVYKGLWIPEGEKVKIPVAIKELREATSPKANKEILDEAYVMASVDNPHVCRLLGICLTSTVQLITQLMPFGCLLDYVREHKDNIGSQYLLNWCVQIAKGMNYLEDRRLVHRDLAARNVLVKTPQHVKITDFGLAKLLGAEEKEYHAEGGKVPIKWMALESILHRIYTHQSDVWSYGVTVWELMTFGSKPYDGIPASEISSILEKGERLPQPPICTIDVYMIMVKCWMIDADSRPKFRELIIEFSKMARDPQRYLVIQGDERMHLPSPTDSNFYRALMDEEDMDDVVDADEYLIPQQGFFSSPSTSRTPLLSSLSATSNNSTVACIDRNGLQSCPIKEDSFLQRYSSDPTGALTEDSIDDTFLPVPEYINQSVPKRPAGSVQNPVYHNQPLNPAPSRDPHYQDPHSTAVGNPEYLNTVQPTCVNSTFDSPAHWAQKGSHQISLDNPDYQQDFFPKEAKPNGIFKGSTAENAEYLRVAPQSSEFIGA

For the compound `C#Cc1cc(=O)n(-c2cccc(N)c2)c2nc(Nc3ccccc3OC)ncc12` [Example 55, 8-(3-Aminophenyl)-5-ethynyl-2-((2-methoxyphenyl)amino)pyrido[2,3-d]pyrimidin-7(8H)-one], the IC50 is 1000 to 10000 nM in assay [1], above 3 µM in assay [2], 1000 to 3000 nM in assay [3] and above 3 µM in assay [4].
Take `C=Cc1cc(=O)n(-c2ccc(OC)cc2OC)c2nc(Nc3ccc(N(C)CCN(C)C)cc3)ncc12` [Example 155, 8-(2,4-dimethoxyphenyl)-2-[(4-{[2-(dimethylamino)ethyl](methyl)amino}phenyl)amino]-5-ethenylpyrido[2,3-d]pyrimidin-7-one]: the IC50 in assay [1] is 1000 to 10000 nM; in assay [2], above 3 µM; in assay [3], above 3000 nM; in assay [4] it was above 3 µM.
As for `C#Cc1cc(=O)n(C2CNC(=O)C2)c2nc(Nc3ccc(N4CCN(C)CC4)cc3)ncc12` (stereo not drawn) [Example 108, 4-(5-ethynyl-2-{[4-(4-methylpiperazin-1-yl)phenyl]amino}-7-oxopyrido[2,3-d]pyrimidin-8-yl)pyrrolidin-2-one], the IC50 in assay [1] was above 10000 nM; in assay [2] it was above 3 µM; in assay [3], above 3000 nM; in assay [4], above 3 µM.
Regarding `C#Cc1cc(=O)n2c3nc(ncc13)Nc1cccc(c1)OC[C@H]1CC[C@H](C1)C2` [Example 192, (5^1R,5^3S)-3^5-ethynyl-3^7,3^8-dihydro-7-oxa-2-aza-3(2,8)-pyrido[2,3-d]pyrimidina-1(1,3)-benzena-5(1,3)-cyclopentanacycloheptaphan-3^7-one], the IC50 is above 10000 nM in assay [1], 0.5 to 1 µM in assay [2], 500 to 1000 nM in assay [3] and above 3 µM in assay [4].
The like results for `C#Cc1cc(=O)n(C2CCCC2)c2nc(Nc3cccc(CN4CC(CS(C)(=O)=O)C4)c3)ncc12` [Example 181] were, in that order, above 10000 nM, above 3 µM, above 3000 nM and above 3 µM.
The like results for `C#Cc1c(C)c(=O)n(Cc2cccnc2)c2nc(Nc3ccc(N4CCN(C)CC4)cc3)ncc12` [Example 116, 5-ethynyl-6-methyl-2-{[4-(4-methylpiperazin-1-yl)phenyl]amino}-8-(pyridin-3-ylmethyl)pyrido[2,3-d]pyrimidin-7-one] were, in that order, 1000 to 10000 nM, above 3 µM, above 3000 nM and 1 to 3 µM.
The like results for `C#Cc1cc(=O)n(-c2ccccc2)c2nc(Nc3ccc(N4CCNC(C)C4)cc3)ncc12` (stereo not drawn) [Example 27, 5-Ethynyl-2-{[4-(3-methylpiperazin-1-yl)phenyl]amino}-8-phenylpyrido[2,3-d]pyrimidin-7-one] were, in that order, below 1000 nM, below 0.5 µM, below 500 nM and 1 to 3 µM.
With `C#Cc1c(C)c(=O)n2c3nc(ncc13)Nc1cccc(c1)OC/C=C\C2` [Example 190, (Z)-1^5-ethynyl-1^6-methyl-1^7,1^8-dihydro-4-oxa-2-aza-1(2,8)-pyrido[2,3-d]pyrimidina-3(1,3)-benzenacyclooctaphan-6-en-1^7-one], the IC50 in assay [1] is above 10000 nM; in assay [2] it was 1 to 3 µM; in assay [3], 1000 to 3000 nM; in assay [4], above 3 µM.
For the compound `C#Cc1cc(=O)n(-c2ccccc2)c2nc(Nc3ccc(N4CCN(C)CC4)cc3)ncc12` [Example 37, 5-Ethynyl-2-((4-(4-methylpiperazin-1-yl)phenyl)amino)-8-phenylpyrido[2,3-d]pyrimidin-7(8H)-one], the IC50 in assay [1] was below 1000 nM; in assay [2] it was 1 to 3 µM; in assay [3], below 500 nM; in assay [4], 1 to 3 µM.
With `C#Cc1cc(=O)n(-c2ccccc2)c2nc(NC3CCN(S(C)(=O)=O)CC3)ncc12` [Example 10, 5-Ethynyl-2-((1-(methylsulfonyl)piperidin-4-yl)amino)-8-phenylpyrido[2,3-d]pyrimidin-7(8H)-one], the IC50 in assay [1] was below 1000 nM; in assay [2], above 3 µM; in assay [3] it was above 3000 nM; in assay [4], above 3 µM.
On to `C#Cc1cc(=O)n([C@H]2CC[C@@H](NC(=O)CN(C)C)CC2)c2nc(Nc3ccc(N4CCN(C)CC4)cc3)ncc12` [Example 100, 2-(Dimethylamino)-N-[(1s,4s)-4-(5-ethynyl-2-{[4-(4-methylpiperazin-1-yl)phenyl]amino}-7-oxopyrido[2,3-d]pyrimidin-8-yl)cyclohexyl]acetamide], for which the IC50 in assay [1] was 1000 to 10000 nM; in assay [2], below 0.5 µM; in assay [3], below 500 nM; in assay [4] it was 1 to 3 µM.
The like results for `C#Cc1cc(=O)n2c3nc(ncc13)Nc1ccc(N3CCN(C)CC3)c(c1)S(=O)(=O)NCCC2` [Example 234, 1^5-Ethynyl-3^4-(4-methylpiperazin-1-yl)-1^7,1^8-dihydro-4-thia-2,5-diaza-1(2,8)-pyrido[2,3-d]pyrimidina-3(1,3)-benzenacyclooctaphan-1^7-one 4,4-dioxide] were, in that order, below 1000 nM, 1 to 3 µM, 1000 to 3000 nM and above 3 µM.
The like results for `C#Cc1cc(=O)n(-c2ccc(N)cc2)c2nc(Nc3ccccc3OC)ncc12` [Example 61, 8-(4-Aminophenyl)-5-ethynyl-2-((2-methoxyphenyl)amino)pyrido[2,3-d]pyrimidin-7(8H)-one] were, in that order, below 1000 nM, above 3 µM, above 3000 nM and above 3 µM.
The like results for `C#Cc1cc(=O)n([C@H]2CC[C@@H](NC(=O)Cc3cn[nH]c3)CC2)c2nc(Nc3ccc(N4CCN(C)CC4)cc3)ncc12` [Example 91, 2-(1H-Pyrazol-4-yl)-N-[(1s,4s)-4-(5-ethynyl-2-{[4-(4-methylpiperazin-1-yl)phenyl]amino}-7-oxopyrido[2,3-d]pyrimidin-8-yl)cyclohexyl]acetamide] were, in that order, below 1000 nM, 1 to 3 µM, 500 to 1000 nM and above 3 µM.
With `C#Cc1cc(=O)n(C)c2nc(Nc3cc(-c4cnn(C)c4)c(N4CCOCC4)cc3OC)ncc12` [Example 44, 5-Ethynyl-2-{[2-methoxy-5-(1-methylpyrazol-4-yl)-4-(morpholin-4-yl)phenyl]amino}-8-methylpyrido[2,3-d]pyrimidin-7-one], the IC50 is below 1000 nM in assay [1], 1 to 3 µM in assay [2], 500 to 1000 nM in assay [3] and above 3 µM in assay [4].
The like results for `C#Cc1cc(=O)n(C)c2nc(Nc3cccc(N(C)CCN(C)C)c3)ncc12` [Example 52, 2-[(3-{[2-(Dimethylamino)ethyl](methyl)amino}phenyl)amino]-5-ethynyl-8-methylpyrido[2,3-d]pyrimidin-7-one] were, in that order, below 1000 nM, below 0.5 µM, below 500 nM and above 3 µM.
The like results for `C#Cc1cc(=O)[nH]c2nc(Nc3ccccc3OC)ncc12` [Example 120, 5-ethynyl-2-((2-methoxyphenyl)amino)pyrido[2,3-d]pyrimidin-7(8H)-one] were, in that order, 1000 to 10000 nM, above 3 µM, above 3000 nM and above 3 µM.
On to `C#Cc1cc(=O)n2c3nc(ncc13)Nc1cccc(c1)COC/C=C\C2` [Example 195, (Z)-1^5-ethynyl-1^7,1^8-dihydro-5-oxa-2-aza-1(2,8)-pyrido[2,3-d]pyrimidina-3(1,3)-benzenacyclononaphan-7-en-1^7-one], for which the IC50 in assay [1] was below 1000 nM; in assay [2] it was above 3 µM; in assay [3], 500 to 1000 nM; in assay [4] it was above 3 µM.
On to `C#Cc1cc(=O)n(-c2ccc(NS(C)(=O)=O)cc2)c2nc(Nc3ccccc3OC)ncc12` [Example 63, N-(4-(5-Ethynyl-2-((2-methoxyphenyl)amino)-7-oxopyrido[2,3-d]pyrimidin-7(8H)-yl)phenyl)methanesulfonamide], for which the IC50 in assay [1] is below 1000 nM; in assay [2], above 3 µM; in assay [3] it was above 3000 nM; in assay [4], above 3 µM.
Consider `C#Cc1c(C)c(=O)n(Cc2ccccn2)c2nc(Nc3ccc(N4CCN(C)CC4)cc3)ncc12` [Example 178, 5-Ethynyl-6-methyl-2-{[4-(4-methylpiperazin-1-yl)phenyl]amino}-8-(pyridin-2-ylmethyl)pyrido[2,3-d]pyrimidin-7-one], for which the IC50 in assay [1] was below 1000 nM; in assay [2], 0.5 to 1 µM; in assay [3], 500 to 1000 nM; in assay [4], above 3 µM.
On to `C#Cc1cc(=O)n(-c2ccccc2)c2nc(Nc3ccc(N4CCNC5(CC5)C4)cc3)ncc12` [Example 38, 2-[(4-{4,7-Diazaspiro[2.5]octan-7-yl}phenyl)amino]-5-ethynyl-8-phenylpyrido[2,3-d]pyrimidin-7-one], for which the IC50 in assay [1] was below 1000 nM; in assay [2], below 0.5 µM; in assay [3], below 500 nM; in assay [4], above 3 µM.
